Earlier results as cited in US20030022813A1, “Treating pain by targeting hyperpolarization-activated, cyclic nucleotide-gated channels” (priority 2001, published 2003).

Tested on: Ih
Settings: applied intracellularly at 5 or 10 mM; cited from earlier work

CC[N+](CC)(CC)CC(=O)Nc1c(C)cccc1C [QX-314]
block of Ih: blocks Ih
